SMILES strings stand for the structures.

Common to all, as to type: biochemical
For assay [1], the target named is T1, CDK4 (Homo sapiens, UniProt P11802). Put plainly: mobility shift kinase assay, % inhibition at […].
Assay [2] addresses T1, CDK4. Nature of the assay: mobility shift kinase assay, % inhibition at […]. The source holds these as a separate data set.
Assay [3] concerns the target Pim1 (Homo sapiens, UniProt P11309). Nature of the assay: mobility shift kinase assay ([…] Pim1, […] ATP, FAM-P20).
Assay [4] has as its target T1, CDK4. Put plainly: mobility shift kinase assay ([…] CDK4, […] ATP, FAM-P8).

T1 sequence (P11802 2-303): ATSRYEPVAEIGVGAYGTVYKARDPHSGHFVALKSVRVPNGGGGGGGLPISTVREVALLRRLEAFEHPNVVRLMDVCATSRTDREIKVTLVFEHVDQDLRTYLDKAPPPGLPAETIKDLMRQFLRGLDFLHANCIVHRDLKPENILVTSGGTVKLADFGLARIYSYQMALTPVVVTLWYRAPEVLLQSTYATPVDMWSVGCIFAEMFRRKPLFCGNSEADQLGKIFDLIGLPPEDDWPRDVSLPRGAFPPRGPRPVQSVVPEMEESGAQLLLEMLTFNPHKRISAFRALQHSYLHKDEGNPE
T1 sequence (P30281 whole entry partner): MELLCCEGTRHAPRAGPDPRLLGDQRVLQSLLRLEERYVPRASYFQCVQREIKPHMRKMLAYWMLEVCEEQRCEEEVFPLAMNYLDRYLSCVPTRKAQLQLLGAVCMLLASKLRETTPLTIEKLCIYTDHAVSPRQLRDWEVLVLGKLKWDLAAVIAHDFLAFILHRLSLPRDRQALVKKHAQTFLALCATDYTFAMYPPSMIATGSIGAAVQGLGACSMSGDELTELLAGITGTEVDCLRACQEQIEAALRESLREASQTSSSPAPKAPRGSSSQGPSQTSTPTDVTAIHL
Sequence of Pim1 (P11309 whole entry): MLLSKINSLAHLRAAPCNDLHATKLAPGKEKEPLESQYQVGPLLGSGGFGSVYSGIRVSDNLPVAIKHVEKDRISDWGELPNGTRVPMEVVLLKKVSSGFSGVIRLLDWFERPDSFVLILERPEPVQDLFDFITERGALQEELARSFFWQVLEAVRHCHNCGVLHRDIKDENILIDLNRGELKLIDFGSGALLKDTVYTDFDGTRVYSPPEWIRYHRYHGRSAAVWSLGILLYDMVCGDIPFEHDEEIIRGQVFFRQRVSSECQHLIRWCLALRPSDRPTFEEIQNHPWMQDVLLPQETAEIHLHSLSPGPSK

For `O=C1N=c2ccccc2=C1c1s/c(=N\N=C2\C(=O)Nc3ccccc32)n(-c2ccc(O)cc2)c1O` [AF-399/37285031], in assay [1], the “% inhibition at 10 μM” value was 57.8 ± 5.0. For the molecule `CC(C)n1cc(C(N)=O)c2cnc(Nc3ccc(N4CCNCC4)cc3)nc21` [MJ-115], in assay [2], the “Inhibition for CDK4 at 100 μM (%)” value was 90.74 ± 1.28.

For the molecule `Oc1ccc(-c2ccc3nnc(-c4ccc5cccc(OC6CCNCC6)c5n4)n3c2)cc1` [MJ-1055], the IC50 is 0.0096 µM in assay [3] and 25.3 µM in assay [4].

As usually defined, the IC50 is the concentration needed to halve the response being measured.

(Values after PMC7278228, “Chemical space exploration based on recurrent neural networks: applications in discovering kinase inhibitors” (Journal of Cheminformatics, 2020).)
